Measured values published in ChEMBL document CHEMBL4219049, “Peptide therapeutics for the treatment of gastrointestinal disorders” (Bioorg Med Chem, 2018).
Bridge positions count the residues as written; N and C are the ends. Peptide text beside a SMILES is read from it.

Key:
Homo sapiens [1] = species on record: Homo sapiens; assay: Reduction in worst abdominal pain in patient with irritable bowel syndrome with constipation after 26 weeks (reference value: 25%); format: functional; design: scale not given: the % may be the effect or the level left
Homo sapiens [2] = species on record: Homo sapiens; assay: Toxicity in patient with irritable bowel syndrome with constipation assessed as induction of diarrhea after 26 weeks (reference value: 2.5%); format: organism-based; details: in vivo, 4368 h
Homo sapiens [3] = species on record: Homo sapiens; assay: Toxicity in patient with chronic idiopathic constipation assessed as induction of diarrhea at 3 mg for 12 weeks (reference value: 1.3%); format: organism-based; details: in vivo, 2016 h
Homo sapiens [4] = species on record: Homo sapiens; assay: Toxicity in patient with chronic idiopathic constipation assessed as induction of diarrhea at 6 mg for 12 weeks (reference value: 1.3%); format: organism-based; details: in vivo, 2016 h
Homo sapiens [5] = species on record: Homo sapiens; assay: Increase in complete spontaneous bowel movements in patient with chronic idiopathic constipation at 3 mg for 12 weeks (reference value: 10.2%); format: functional
Homo sapiens [6] = species on record: Homo sapiens; assay: Increase in complete spontaneous bowel movements in patient with chronic idiopathic constipation at 6 mg for 12 weeks (reference value: 10.2%); format: functional
[7] = Elimination half-life in human plasma at 0.8 pmol/kg.min, iv; format: ADME, cell-free; details: read-out: beta t1/2

C[C@@H]1NC(=O)[C@@H]2CCCN2C(=O)[C@H](CC(N)=O)NC(=O)[C@@H]2CSSC[C@H](N)C(=O)N[C@H]3CSSC[C@H](NC1=O)C(=O)N[C@@H]([C@@H](C)O)C(=O)NCC(=O)N[C@H](C(=O)N[C@@H](Cc1ccc(O)cc1)C(=O)O)CSSC[C@H](NC(=O)[C@H](Cc1ccc(O)cc1)NC(=O)[C@H](CCC(=O)O)NC3=O)C(=O)N2 [LINACLOTIDE] (H-CCEYCCNPACTGCY-OH; disulfide 1-6, 2-10, 5-13)
Activity (Homo sapiens [1]): 47% | Activity (Homo sapiens [2]): 19.7%

CC(C)C[C@H](NC(=O)[C@@H]1CSSC[C@@H]2NC(=O)[C@H](CC(C)C)NC(=O)[C@H](CCC(=O)O)NC(=O)[C@@H](NC(=O)[C@H](CCC(=O)O)NC(=O)[C@H](CC(=O)O)NC(=O)[C@@H](N)CC(N)=O)CSSC[C@H](NC(=O)[C@H](C)NC(=O)[C@H](C(C)C)NC(=O)[C@H](CC(N)=O)NC(=O)[C@H](C(C)C)NC2=O)C(=O)N[C@@H]([C@@H](C)O)C(=O)NCC(=O)N1)C(=O)O [PLECANATIDE]
Activity (Homo sapiens [3]): 5.9% | Activity (Homo sapiens [4]): 5.7% | Activity (Homo sapiens [5]): 21% | Activity (Homo sapiens [6]): 19.5%

CC[C@H](C)[C@H](NC(=O)[C@H](Cc1ccccc1)NC(=O)[C@H](CC(=O)O)NC(=O)[C@H](CCCN=C(N)N)NC(=O)[C@H](C)NC(=O)[C@H](C)NC(=O)[C@H](CC(C)C)NC(=O)[C@H](CC(N)=O)NC(=O)[C@H](CC(=O)O)NC(=O)[C@H](CC(C)C)NC(=O)[C@@H](NC(=O)[C@@H](NC(=O)[C@H](CC(N)=O)NC(=O)[C@H](CCSC)NC(=O)[C@H](CCC(=O)O)NC(=O)[C@H](CC(=O)O)NC(=O)[C@H](CO)NC(=O)[C@H](Cc1ccccc1)NC(=O)[C@H](CO)NC(=O)CNC(=O)[C@H](CC(=O)O)NC(=O)[C@H](C)NC(=O)[C@@H](N)Cc1cnc[nH]1)[C@@H](C)O)[C@@H](C)CC)C(=O)N[C@@H](CC(N)=O)C(=O)N[C@@H](Cc1c[nH]c2ccccc12)C(=O)N[C@@H](CC(C)C)C(=O)N[C@H](C(=O)N[C@@H](CCC(N)=O)C(=O)N[C@H](C(=O)N[C@@H](CCCCN)C(=O)N[C@H](C(=O)N[C@H](C(=O)N[C@@H](CC(=O)O)C(=O)O)[C@@H](C)O)[C@@H](C)CC)[C@@H](C)O)[C@@H](C)CC
half-life [7]: 7.2 min
